Laboratory results: patent US10028958B2, “Methods of treating cancer with a combination of selected MEK1/2 and AXL inhibitors” (Massachusetts Institute of Technology, priority 2014, dated 2018)
Each block holds one molecule with its values, some of them ahead of it.

How the values were obtained:
AXL pY = assay: Short term p-AXL up-regulation (bead-based immunoassay); assay type: cell-based; conditions: 2 h; MDAMB231
Text: pTyr-RTK measurements used bead-based immunocapture with a pan-pTyr detection antibody (EMD Millipore, Billerica, Mass.). Unless otherwise stated, immunoassays followed manufacturer protocols. Bead-based immunoassays were routinely normalized according to the micro BCA protein assay (Pierce) or cell count (ViCell). ADAM17 (pThr^735) and ADAM10 western blot Abs were from Sigma. Anti-phospho Histone H3 (Ser10) for measuring mitotic index was from EMD Millipore, (Billerica, Mass.). GAPDH (glyceraldehyde-3-phosphate dehydrogenase) and α-actinin were used for Western blotting and purchased from Cell Signaling Technology (Danvers, Mass.). APP Ab was from Abcam (Cambridge, Mass.). Live-cell immunostaining was performed using R&D Systems (Minneapolis, Minn.) Abs. SiRNAs, including non-targeting control siRNA, were packaged as SMARTpool ON-TARGETplus and used with DharmaFECT4 (Thermo Scientific, Tewksbury, Mass.). For ADAM10/17 western blots, lysis was performed with 50 mM tris-HCl (pH 7.5), 10% glycerol, 150 mM NaCl, and 1% NP-40, with complete protease (Roche, Nutley, N.J.) and phosphatase (Boston BioProducts, Ashland, Mass.) inhibitors added immediately before use.

[1] = tested on: AXL association with MET and HER2; assay: RTK cross-linking and bead-based co-I.P.; assay type: cell-based; conditions: 2 h; MDAMB231
Method: MDA-MB231 cells were plated at 90% confluency on three 10-cm plates for each condition, serum starved for 4 h the following day, and treated with inhibitor in serum-free media for 2 h. Cells were then cross-linked with 1 mM EGS for 30 min at 4° C., lysed. Receptor cross-linking was measured using a modified MET and HER2 Luminex Bioplex assay, as previously described (Meyer, A. S., Miller, M. A., Gertler, F. B., and Lauffenburger, D. A. (2013). The receptor AXL diversifies EGFR signaling and limits the response to EGFR-targeted inhibitors in triple-negative breast cancer cells. Sci Signal 6, ra66).

p-JNK = assay: Short term BB94-elicited downstream phosphosignaling (bead-based immunoassay); assay type: cell-based; conditions: 2 h
mitotic index = assay: Cell cycle analysis (mitotic index by FACS); assay type: cell-based
Method: Cells were trypsinized, rinsed in 4° C. PBS, fixed in 70% 4° C. ethanol overnight, rinsed, and permeabilized in 0.1% Triton-X-100. Cells were then blocked for 1 h in PBS+3% FBS, incubated with anti-phospho-Histone H3 (pSer^10) for 1 h, rinsed, incubated with Alexa647-conjugated 2° Ab, and again rinsed. Lastly, cells were finally incubated at 37° C. for 1 h with 40 μg/ml propidium iodide and 100 μg/ml RNaseA, and again rinsed. Mitotic index was calculated by interpreting DNA-content histograms as described previously (Watson, J. V., Chambers, S. H. & Smith, P. J. A pragmatic approach to the analysis of DNA histograms with a definable G1 peak. Cytometry 8, 1-8 (1987)) in Matlab (Mathworks, Natick, Mass.) and gating for G2/M phase cells with high p-Histone-H3 staining.

MDAMB-231 = assay: Loewe synergy of MEKi/AXLi cell count, with or without BB94; assay type: cell-based; conditions: 72 h; addition of 10 uM BB94
Method: (§1) Drugs were purchased from Selleck Chem (Houston, Tex.) and LC Labs (Woburn, Mass.). Cells were grown as described by manufacturers' guidelines. OVCA-429 were grown in RPMI+10% FBS. To calculate Loewe synergy, a computational model was used (Greco, W. R., et al., Pharmacol Rev., 47(2):331-85 (1995)) and the synergy term a was computationally inferred using Matlab (Mathworks; Natick, Mass.). Statistical significance was determined by leave-one-out jackknife error estimation (Efron, B. and Gong, G., Amer Stat.; 37(1):36-48 (1983)). For both MDAMB-231 and OVCA-429 synergy calculations, the modeling was fit to data from treatment at the MEKi concentrations of 7 μM, 2 μM, 0.7 μM, and 0.02 μM and R428 concentrations of 1.5 μM, 0.75 μM, 0.38 μM, and 0.19 μM. For cell growth assays, 5000 cells were plated per well in a 96-well plate, treated with drugs the following day, and counted at 72 h according to either a rezasurin assay (PrestoBlue; Life Technologies, Grand Island, N.Y.) using manufacturer's guidelines, or by flow cytometry following trypsinization and immediate analysis on an LSR-II (BD Biosciences, San Jose, Calif.).

[2] = tested on: OVCA-429 ovarian cancer cells; assay: as above; assay type: cell-based; conditions: 72 h; addition of 10 uM BB94
Method: as §1

sheddase substrates = assay: Supernatant accumulation of sheddase substrates (ELISA, bead-based immunoassay); conditions: for supernatant RTK accumulation: multiple cancer types
[3] = tested on: ovarian carcinoma and malignant melanoma; assay: Combination drug treatment cell growth assay, 72 h; assay type: cell-based
Method: Drugs were purchased from Selleck Chem (Houston, Tex.) and LC Labs (Woburn, Mass.). Cells were grown as described by manufacturers' guidelines. […] For cell growth assays, 5000 cells were plated per well in a 96-well plate, treated with drugs the following day, and counted at 72 h according to either a rezasurin assay (PrestoBlue; Life Technologies, Grand Island, N.Y.) using manufacturer's guidelines, or by flow cytometry following trypsinization and immediate analysis on an LSR-II (BD Biosciences, San Jose, Calif.).

[4] = tested on: supernatant TIMP-1 and -3; assay: Antibody microarray analysis of MDA-MB231 supernatant; assay type: cell-based; conditions: 24 h; MDAMB231; Ab-microarray
Method: MDA-MB231 cells were plated in 10 cm plates at 70% confluency, treated the following day with either DMSO or PD325901, and supernatant was collected 24 hours (h) later. Using L-1000 RayBio (Norcross Ga.) microarrays, supernatant was processed according to manufacturer instructions. Two biological replicate samples were analyzed for the control and MEKi conditions, with one sample undiluted and the other diluted 1:5 in growth media. Each array contains duplicate antibody spots, and so a total of n=4 replicates was used to determine significant changes in supernatant proteins. Only proteins measured more than four standard deviations above background for at least one condition were included in the analysis. Gene set enrichment analysis was performed as previously described using gene ontology (GO) gene sets (Subramanian, A. et al., Gene set enrichment analysis: a knowledge-based approach for interpreting genome-wide expression profiles. Proc Natl Acad Sci USA 102, 15545-15550 (2005)). […] The other top gene-sets were “intrinsic to membrane”, “integral to membrane”, “receptor activity”, and “intrinsic to plasma membrane”. The highest enrichment score in PD325901-treated cells was for “hematopoietin interferon class-D200 domain cytokine receptor binding” comprising 10 non-transmembrane proteins, with a corresponding p-value of 0.003.

surface AXL = conditions: 24 hours; 10 cell lines; more in lines with AXLi/MEKi synergy
Method: Cells were trypsinized, rinsed in 4° C. phospho-buffered saline (PBS)+3% FBS, incubated with 1° Ab (i.e., primary antibody) in PBS+3% FBS for 1 h, rinsed, and fixed overnight in PBS+1% formaldehyde at 4° C. The following day, cells were rinsed, incubated with 2° Ab (i.e., secondary antibody) conjugated to either Alexa647 or Alexa546, rinsed, and analyzed by flow cytometry. Fold-change was determined after subtracting the median fluorescence from control cells stained with the IgG control antibody.

ADAM17 = ADAM17 dimerization (s-EGS cross-linking, western blot); assay type: cell-based; conditions: 3 h; MDA-MB231, MDA-MB157, BT549
Method: For each condition, two confluent 15 cm plates of cells were serum-starved for 4 h, treated with inhibitor for 3 h, rinsed with 4° C. PBS, incubated with 0.5 mg/ml sulfo-EGS (Pierce) for 30 min., and lysed in 1% NP40 buffer. Lysates were clarified, precleared with agarose resin, incubated with protein A/G resin (Pierce) and anti-ADAM17 antibody (R&D Systems Duo-set) overnight, washed, and then boiled in denaturing lysis buffer. Methods roughly follow previously described protocols (Miller, M. A., Meyer, A. S., Beste, M. T., Lasisi, Z., Reddy, S., Jeng, K. W., Chen, C. H., Han, J., Isaacson, K., Griffith, L. G. et al. (2013). ADAM-10 and -17 regulate endometriotic cell migration via concerted ligand and receptor shedding feedback on kinase signaling, Proc Natl Acad Sci USA 110, E2074-E2083; Xu, P., Liu, J., Sakaki-Yumoto, M., and Derynck, R. (2012). TACE activation by MAPK-mediated regulation of cell surface dimerization and TIMP3 association, Sci Signal 5, ra34).

panel of cell lines = assay: Proliferation/cytotoxicity cell count by flow cytometry; assay type: cell-based; conditions: individual drug treatment; rough approximation
Method: Proliferation and cytotoxicity were assessed by gently rinsing cells, trypsinizing for 15 min, and immediately counting cells by flow-cytometry. Live/dead staining routinely confirmed the majority (>98%) of counted cells to be alive using this procedure. Synergy was calculated using the model of Bliss independence (Bliss, C. I. The toxicity of poisons applied jointly Annals of applied biology 26, 585-615 (1939)), reported herein as the ratio of [observed combination effect size]/[predicted combination effect size], such that values >1 indicate super-additive drug effect, or synergy, and values <1 indicate antagonism. Drug concentrations for synergy measurements were chosen to roughly approximate the IC30 value averaged across the panel of cell lines for the individual drug treatments, and were 20 μM U0126, 7 μM PD325901, and 200 nM R428.

MDA-MB231-LM2 cells = assay: Orthotopic xenograft model of TNBC: tumor growth, metastasis, immunostaining, plasma receptors; assay type: in vivo, mice; conditions: primary tumors, 21 days after treatment
Method: For orthotopic mammary transplant assays, 6-week-old female NOD/SCID-gamma mice (JAX) were anesthetized by intraperitoneal (i.p.) injection of 125-250 mg/kg body weight of Avertin (reconstituted in PBS), followed by i.p. injection of 100 μL, of 12 μg/mL buprenorphine for analgesia. A small incision was made on the right flank, and 250,000 MDA-MB231-LM2 cells in 25 μL, of HBSS were injected into the right #4 fat pad using a 25-μL Hamilton syringe. Mice received three additional i.p. injections of 100 μL, of 12 μg/mL buprenorphine at 12 h intervals following the surgery. […] Twenty (20) days post-surgery, when tumor size was palpable, mice were ranked by tumor size and semi-randomly divided into four groups of equal distribution in tumor size. […]
MET and AXL levels were quantified by measuring fluorescent staining intensity over a line drawn radially from the tumor edge towards the tumor core. […] Regions with morphology characteristic of stroma or necrosis were generally avoided during quantification. Peak intensities along the line were confirmed by visual inspection as corresponding to cell membranes, and were quantified and indexed according to the distance from the tumor edge.

LOX-IMVI cells = assay: Xenograft mouse model of melanoma; set-up: species or system mice; conditions: in vivo
Method: For the xenograft melanoma experiment, 7 week old female athymic nude mice (Taconic) were injected with 1×10^6 LOX-IMVI cells in 1:1 Matrigel:HBSS subcutaneously in each flank (Yang, D., et al. “RasGRP3, a Ras activator, contributes to signaling and the tumorigenic phenotype in human melanoma.” Oncogene 30, no. 45: 4590-4600 (2011)). 7 days post-cell injection, tumors were measured by calipers and mice were ranked by tumor size and semi-randomly divided into 6 groups of equal distribution in tumor size, with 10 mice per group. […]
Tumor volumes was measured two to three times a week, estimated using the spherical tumor volume formula V=4/3πr^3, where r is averaged from 4 caliper measurements performed by two blinded researchers. […] For metastasis quantification, the numbers of metastases were counted in paraffin-embedded, H&E-stained sections, by a blinded researcher. Upon sacrifice, blood was collected via cardiac puncture into a heparinized syringe, immediately centrifuged at 2000×g for 20 min, and plasma fraction was stored at −80° C. for later quantification of receptor levels by ELISA and bead-based immunoassay.

- supernatant RTK accumulation (sheddase substrates; 24 h): reduced supernatant RTK accumulation
Structure (SMILES): CNC(=O)[C@H](Cc1ccccc1)NC(=O)[C@H](CC(C)C)[C@H](CSc1cccs1)C(=O)NO [BB94]
- total AXL pY (AXL pY): increases
- AXL association with MET and HER2 [1]: increases
- phosphosignaling (p-JNK; MDAMB231): increases phosphosignaling in an AXL-dependent manner
- mitotic index (mitotic index): increases mitotic index
- Loewe synergy (interaction term α) of PD325901 and R428 (MDAMB-231): reduced synergy
- Loewe synergy (interaction term α) of trametinib and R428 [2]: reduced synergy

Structure (SMILES): S=C(NCc1ccc2c(c1)OCO2)N1CCN(c2ncnc3c2oc2ccccc23)CC1 [MP470, amuvatinib]
- efficacy of combination treatment with MAPK and RTK inhibitors (cell count) [3]: efficacious

Structure (SMILES): O=C(NOC[C@H](O)CO)c1ccc(F)c(F)c1Nc1ccc(I)cc1F [PD325901]
- supernatant TIMP-1 and -3 [4]: decreases supernatant TIMP-1 and -3
- surface AXL (surface AXL): increase surface AXL
- ADAM17 homodimerization (ADAM17): increased ADAM17 dimerization
- IC30 value averaged across the panel of cell lines (panel of cell lines): ~7 µM
- AXL and MET ectodomain immunostaining near the tumor edge (MDA-MB231-LM2 cells): up-regulation of AXL, and MET to a lesser degree
- supernatant RTK accumulation (sheddase substrates; 24 h): reduced supernatant RTK accumulation

Structure (SMILES): Nc1nc(Nc2ccc3c(c2)CC[C@@H](N2CCCC2)CC3)nn1-c1cc2c(nn1)-c1ccccc1CCC2 [R428]
- MPi-evoked p-JNK increase on co-treatment (p-JNK; MDA-MB231, co-treatment with BB94): eliminated
- IC30 value averaged across the panel of cell lines (panel of cell lines): ~0.2 µM
- overall survival (LOX-IMVI cells): no significant effect on overall survival

Structure (SMILES): N#CC(=C(/N)Sc1ccccc1N)/C(C#N)=C(\N)Sc1ccccc1N [U0126]
- surface AXL (surface AXL): increase surface AXL
- total AXL pY (AXL pY): increases
- IC30 value averaged across the panel of cell lines (panel of cell lines): ~20 µM
- supernatant accumulation of sheddase substrates (sheddase substrates; 24 h, each dot a different cell line, ELISA): reduces supernatant accumulation of sheddase substrates
- supernatant levels of multiple sheddase substrates (AREG, HBEGF, TGFα, TNFR1, AXL, MET, HER2, HER4) (sheddase substrates; MDA-MB231 cells): consistently reduce supernatant levels of multiple sheddase substrates

Structure (SMILES): COc1cc2c(Oc3ccc(NC(=O)C4(C(=O)Nc5ccc(F)cc5)CC4)cc3F)ccnc2cc1OCCCN1CCOCC1 [foretinib]
- efficacy of combination treatment with MAPK and RTK inhibitors (cell count) [3]: efficacious

Structure (SMILES): CNC(=O)c1cc(Oc2ccc(NC(=O)Nc3ccc(Cl)c(C(F)(F)F)c3)cc2)ccn1 [sorafenib]
- efficacy of combination treatment with MAPK and RTK inhibitors (cell count) [3]: effective
